# Measurements reported in patent US12162840B2, “Herbicidal compositions” (SYNGENTA PARTICIPATIONS AG, priority 2018, dated 2024).
# Legend:
# Type in all cases: in vivo
# [1] = system: Amaranthus retoflexus (AMARE); assay: B1 Post-emergence efficacy Test 1; conditions: post-emergence application, 1000 g/ha, evaluated after 13 days
# Procedure, shortened: (§1)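 Damage ratings on a 1–5 scale (5=80-100%, 4=60-79%, 3=40-59%, 2=20-39%, 1=0-19%) come from visual assessment 13 days after spraying. Plants were treated at 8 days post-sowing with 1000 g/ha in acetone/water (50:50) containing 0.5% Tween 20.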
# [2] = system: Echinochloa crus-galli (ECHCG); assay: B1 Post-emergence efficacy Test 1; conditions: post-emergence application, 1000 g/ha, evaluated after 13 days
# Procedure, shortened: as §1
# [3] = system: Ipomoea hederacea (IPOHE); assay: B1 Post-emergence efficacy Test 1; conditions: post-emergence application, 1000 g/ha, evaluated after 13 days
# Procedure, shortened: as §1
# [4] = system: Lolium perenne (LOLPE); assay: B1 Post-emergence efficacy Test 1; conditions: post-emergence application, 1000 g/ha, evaluated after 13 days
# Procedure, shortened: as §1
# [5] = system: Setaria faberi (SETFA); assay: B1 Post-emergence efficacy Test 1; conditions: post-emergence application, 1000 g/ha, evaluated after 13 days
# Procedure, shortened: as §1
# [6] = system: Solanum nigrum (SOLNI); assay: B1 Post-emergence efficacy Test 1; conditions: post-emergence application, 1000 g/ha, evaluated after 13 days
# Procedure, shortened: as §1
# [7] = system: warm season plant species; assay: B2 Post-emergence efficacy Test 2, warm season plant species; conditions: 15 days after application, 0-100 scale, 0=no damage, 100=total kill; for Herbicidal activity, ABUTH: Abutilon theophrasti; for Herbicidal activity, AMARE: Amaranthus retroflexus; for Herbicidal activity, BIDPI: Bidens pilosa; for Herbicidal activity, BRAPL: Brachiaria plantaginea; for Herbicidal activity, DIGSA: Digitaria sanguinalis; for Herbicidal activity, ECHCG: Echinochloa crus galli; for Herbicidal activity, ELEIN: Eleisine indica; for Herbicidal activity, EPHHL: Euphorbia hetrophylla; for Herbicidal activity, GLXMA: Glycine max; for Herbicidal activity, IPOHE: Ipomoea hederacea; for Herbicidal activity, ORYSA: Orysa sativa; for Herbicidal activity, PANMI: Panicum miliaceum; for Herbicidal activity, SETFA: Setaria faberi; for Herbicidal activity, SIDSP: Sida spinosa; for Herbicidal activity, SORVU: Sorghum bicolour; for Herbicidal activity, XANST: Xanthium strumarium; for Herbicidal activity, ZEAMX: Zea mays
# Experimental: Seeds of a variety of test species (see Table B1) were sown in standard soil in pots. After cultivation for 12 days (post-emergence) under controlled conditions in a glasshouse (at 24/18° C. or 20/16° C., at day/night; 16 hours light; 65% humidity), the plants were sprayed with an aqueous spray solution derived from the formulation of the technical active ingredient dissolved in IF50 (see Table B2 for composition) and adjuvant (Genapol XO80) was added to the spray solution at a rate of 0.2% v/v. [table] [table] After application, the test plants were grown in a glasshouse under controlled conditions (as above) and watered twice daily. Herbicidal activity was evaluated 15 days after application on a 0-100 scale. The results, where 0=no damage to test plant and 100=total kill of test plant are shown below in Tables 6 to 9.
compound,measurement,setting,value
Cc1nn(C)c(=O)c(-c2c(F)ccc(Cl)c2CCc2ccc(F)cc2)c1OC(=O)C(C)C [Compound 1.125],"percentage damage caused to the plant, five point scale, AMARE",[1],5 (5=80-100%)
same,"percentage damage caused to the plant, five point scale, ECHCG",[2],5 (5=80-100%)
same,"percentage damage caused to the plant, five point scale, IPOHE",[3],5 (5=80-100%)
same,"percentage damage caused to the plant, five point scale, LOLPE",[4],5 (5=80-100%)
same,"percentage damage caused to the plant, five point scale, SETFA",[5],5 (5=80-100%)
same,"percentage damage caused to the plant, five point scale, SOLNI",[6],5 (5=80-100%)
same,"Herbicidal activity, ABUTH",[7]; 15 g/Ha,80
same,"Herbicidal activity, ABUTH",[7]; 30 g/Ha,90
same,"Herbicidal activity, ABUTH",[7]; 60 g/Ha,90
same,"Herbicidal activity, ABUTH",[7]; 125 g/Ha,90
same,"Herbicidal activity, ABUTH",[7]; 250 g/Ha,100
same,"Herbicidal activity, ABUTH",[7]; 500 g/Ha,100
same,"Herbicidal activity, AMARE",[7]; 15 g/Ha,80
same,"Herbicidal activity, AMARE",[7]; 30 g/Ha,90
same,"Herbicidal activity, AMARE",[7]; 60 g/Ha,90
same,"Herbicidal activity, AMARE",[7]; 125 g/Ha,100
same,"Herbicidal activity, AMARE",[7]; 250 g/Ha,100
same,"Herbicidal activity, AMARE",[7]; 500 g/Ha,100
same,"Herbicidal activity, BIDPI",[7]; 15 g/Ha,60
same,"Herbicidal activity, BIDPI",[7]; 30 g/Ha,60
same,"Herbicidal activity, BIDPI",[7]; 60 g/Ha,70
same,"Herbicidal activity, BIDPI",[7]; 125 g/Ha,70
same,"Herbicidal activity, BIDPI",[7]; 250 g/Ha,80
same,"Herbicidal activity, BIDPI",[7]; 500 g/Ha,100
same,"Herbicidal activity, BRAPL",[7]; 15 g/Ha,80
same,"Herbicidal activity, BRAPL",[7]; 60 g/Ha,80
same,"Herbicidal activity, BRAPL",[7]; 125 g/Ha,80
same,"Herbicidal activity, BRAPL",[7]; 250 g/Ha,70
same,"Herbicidal activity, BRAPL",[7]; 500 g/Ha,80
same,"Herbicidal activity, DIGSA",[7]; 15 g/Ha,0
same,"Herbicidal activity, DIGSA",[7]; 30 g/Ha,0
same,"Herbicidal activity, DIGSA",[7]; 60 g/Ha,0
same,"Herbicidal activity, DIGSA",[7]; 125 g/Ha,10
same,"Herbicidal activity, DIGSA",[7]; 250 g/Ha,30
same,"Herbicidal activity, DIGSA",[7]; 500 g/Ha,70
same,"Herbicidal activity, ECHCG",[7]; 15 g/Ha,70
same,"Herbicidal activity, ECHCG",[7]; 30 g/Ha,80
same,"Herbicidal activity, ECHCG",[7]; 60 g/Ha,80
same,"Herbicidal activity, ECHCG",[7]; 125 g/Ha,80
same,"Herbicidal activity, ECHCG",[7]; 250 g/Ha,90
same,"Herbicidal activity, ECHCG",[7]; 500 g/Ha,100
same,"Herbicidal activity, ELEIN",[7]; 15 g/Ha,40
same,"Herbicidal activity, ELEIN",[7]; 30 g/Ha,40
same,"Herbicidal activity, ELEIN",[7]; 60 g/Ha,70
same,"Herbicidal activity, ELEIN",[7]; 125 g/Ha,70
same,"Herbicidal activity, ELEIN",[7]; 250 g/Ha,80
same,"Herbicidal activity, ELEIN",[7]; 500 g/Ha,80
same,"Herbicidal activity, EPHHL",[7]; 15 g/Ha,90
same,"Herbicidal activity, EPHHL",[7]; 30 g/Ha,90
same,"Herbicidal activity, EPHHL",[7]; 60 g/Ha,100
same,"Herbicidal activity, EPHHL",[7]; 125 g/Ha,100
same,"Herbicidal activity, EPHHL",[7]; 250 g/Ha,100
same,"Herbicidal activity, EPHHL",[7]; 500 g/Ha,100
same,"Herbicidal activity, GLXMA",[7]; 15 g/Ha,40
same,"Herbicidal activity, GLXMA",[7]; 30 g/Ha,70
same,"Herbicidal activity, GLXMA",[7]; 60 g/Ha,70
same,"Herbicidal activity, GLXMA",[7]; 250 g/Ha,90
same,"Herbicidal activity, GLXMA",[7]; 500 g/Ha,90
same,"Herbicidal activity, IPOHE",[7]; 15 g/Ha,90
same,"Herbicidal activity, IPOHE",[7]; 30 g/Ha,100
same,"Herbicidal activity, IPOHE",[7]; 60 g/Ha,100
same,"Herbicidal activity, IPOHE",[7]; 125 g/Ha,100
same,"Herbicidal activity, IPOHE",[7]; 250 g/Ha,100
same,"Herbicidal activity, IPOHE",[7]; 500 g/Ha,100
same,"Herbicidal activity, ORYSA",[7]; 15 g/Ha,0
same,"Herbicidal activity, ORYSA",[7]; 30 g/Ha,0
same,"Herbicidal activity, ORYSA",[7]; 60 g/Ha,0
same,"Herbicidal activity, ORYSA",[7]; 125 g/Ha,0
same,"Herbicidal activity, ORYSA",[7]; 250 g/Ha,0
same,"Herbicidal activity, ORYSA",[7]; 500 g/Ha,0
same,"Herbicidal activity, PANMI",[7]; 15 g/Ha,20
same,"Herbicidal activity, PANMI",[7]; 30 g/Ha,30
same,"Herbicidal activity, PANMI",[7]; 60 g/Ha,50
same,"Herbicidal activity, PANMI",[7]; 125 g/Ha,50
same,"Herbicidal activity, PANMI",[7]; 250 g/Ha,70
same,"Herbicidal activity, PANMI",[7]; 500 g/Ha,80
same,"Herbicidal activity, SETFA",[7]; 15 g/Ha,0
same,"Herbicidal activity, SETFA",[7]; 30 g/Ha,10
same,"Herbicidal activity, SETFA",[7]; 60 g/Ha,20
same,"Herbicidal activity, SETFA",[7]; 125 g/Ha,20
same,"Herbicidal activity, SETFA",[7]; 250 g/Ha,20
same,"Herbicidal activity, SETFA",[7]; 500 g/Ha,100
same,"Herbicidal activity, SIDSP",[7]; 60 g/Ha,80
same,"Herbicidal activity, SIDSP",[7]; 125 g/Ha,90
same,"Herbicidal activity, SIDSP",[7]; 250 g/Ha,90
same,"Herbicidal activity, SIDSP",[7]; 500 g/Ha,100
same,"Herbicidal activity, SORVU",[7]; 15 g/Ha,0
same,"Herbicidal activity, SORVU",[7]; 30 g/Ha,50
same,"Herbicidal activity, SORVU",[7]; 60 g/Ha,50
same,"Herbicidal activity, SORVU",[7]; 125 g/Ha,70
same,"Herbicidal activity, SORVU",[7]; 250 g/Ha,80
same,"Herbicidal activity, SORVU",[7]; 500 g/Ha,90
same,"Herbicidal activity, XANST",[7]; 30 g/Ha,90
same,"Herbicidal activity, XANST",[7]; 60 g/Ha,90
same,"Herbicidal activity, XANST",[7]; 125 g/Ha,90
same,"Herbicidal activity, XANST",[7]; 250 g/Ha,90
same,"Herbicidal activity, XANST",[7]; 500 g/Ha,100
same,"Herbicidal activity, ZEAMX",[7]; 15 g/Ha,0
same,"Herbicidal activity, ZEAMX",[7]; 30 g/Ha,20
same,"Herbicidal activity, ZEAMX",[7]; 60 g/Ha,30
same,"Herbicidal activity, ZEAMX",[7]; 125 g/Ha,20
same,"Herbicidal activity, ZEAMX",[7]; 250 g/Ha,40
same,"Herbicidal activity, ZEAMX",[7]; 500 g/Ha,70
